In one series the test system is TLR7 and TLR8. The experiment in a line: Human PBMC cell-based assay, TLR7 and TLR8 (R848). As to conditions: R848 at 1 µg/mL, overnight, cytokine levels, read-out: hPBMC/TLR78 IC50. The text has this: Unlike the HEK reporter cell lines, human peripheral blood mononuclear cell (PBMC) represents primary human immune cells in blood mainly consisting of lymphocytes, monocytes, and dendritic cells. These cells express TLR7, TLR8, or TLR9, and therefore are natural responders to respective ligand stimulation. Upon activation of these TLRs, PBMCs secrete similar cytokines and chemokines in vitro and in vivo, and therefore the in vitro potency of a TLR7/8/9 antagonist in human PBMC is readily translatable to its pharmacodynamics response in vivo.
Human peripheral blood mononuclear cells (PBMC) were isolated from freshly-drawn lithium-heparinized (Lithium Heparin Plus blood Collection tube, BD Vacutainer®) healthy donor whole blood by density gradient (Ficoll-PaqueTM PLUS, GE Healthcare life Sciences). Briefly, […] was diluted with 25 mL PBS (without Ca^2+, Mg^2+) in a 50 mL conical tube with porous barrier (Leucosep tube, Greiner bio-one), where 15.5 mL Ficoll-Paque was under laid after spinning. Tubes were centrifuged for 20 minutes at 800×g (1946 rpm) with the brake in the off position, and PBMC were collected from the buffy coat. Cells were then washed twice in PBS, and red blood cells were lysed by suspension in 2 mL (Red Blood Cell Lysis Buffer, Alfa Aesar) for 5-10 minutes at room temperature. After a final wash in PBS, PBMC were resuspended at a final concentration of 2×10^6 cells/mL in RPMI-1640 media with GlutaMAXTM (Gibco) supplemented with 10% Fetal Bovine Serum (Sigma) and plated at 150µL/well (3×10^5 cells/well) in tissue culture treated round bottom 96-well plates (Corning Incorporated). Antagonist compounds (compounds of this invention) solubilized and serial diluted in 100% DMSO were added in duplicate to cells to yield a final concentration of 1% DMSO (v/v). PBMC were incubated with antagonist compounds for 30 minutes at 37° C., 5% CO2 before adding various TLR agonist reagents in 48 µL complete media per well as follows (final concentrations indicated): CpG ODN 2216 (InvivoGen) at 1 µM for TLR9, ORN 06/LyoVec (InvivoGen) at 1 µg/mL for TLR8 and R848 (InvivoGen) at 1 µg/mL for TLR7 and TLR8. PBMC were incubated overnight at 37° C. with 5% CO2. Cell culture supernatants were collected, and levels of various human cytokines were assessed by Luminex assay (ProcartaPlexTM Multiplex Immunoassay, Invitrogen) or ELISA procedure according to the manufacturer’s recommended protocol (eBioscience, ThermoFisher Scientific). Viability of the cells was also checked with Cell Viability Assay (CellTiter Glo®Luminescent Cell Viability Assay, Promega).

A short description of series [1]: Single dose pharmacokinetics (PK) study in male Wister-Han rats. The series is classed as in vivo. As to the method: Pharmacokinetic properties of selected compounds were assessed by single dose PK studies in Male Wister-Han Rats (vendor: Beijing Vital River Laboratory Animal Technology Co., Ltd). Briefly, two groups of animals were administered a single dose of respective compound intravenously (IV, bolus) at 2 mg/kg or orally (PO, by gavage) at 10 mg/kg. Blood samples (approximately 150 µL) were collected via Jugular vein at 5 min (only for IV), 15 min, 30 min, 1 h, 2 h, 4 h, 7 h and 24 h post-dose. Blood samples were placed into tubes containing EDTA-K2 anticoagulant and centrifuged at 3000 rpm for 15 min at 4° C. to separate plasma from the samples. After centrifugation, the resulting plasma was transferred to clean tubes for bioanalysis with LC/MS/MS. The pharmacokinetic parameters were calculated using non-compartmental analysis. The volume of distribution (Vss), half-life (T½) and clearance (CL) were obtained based on the plasma concentration-time curve after IV dose. The peak concentration (Cmax) was recorded directly from experimental observations after PO dose. The area under the plasma concentration-time curve (AUC0-last) was calculated using the linear trapezoidal rule up to the last detectable concentration. The bioavailability (F) was calculated based on the dose normalized AUC0-last after IV and PO dose.
The Vss of a drug represents the degree to which a drug is distributed in body tissue rather than the plasma. Vss is directly proportional with the amount of drug distributed into tissue. A higher Vss indicates a greater amount of tissue distribution.

Where two headings read alike, the source gives them in different places.

Take `CCc1nc(N2CCN(Cc3cnc(N4CC(C)(N)C4)nc3)CC2)ccc1-c1cc(C)c(=O)n(C)c1` [Example 3, 5-[6-[4-[[2-(3-amino-3-methyl-azetidin-1-yl)pyrimidin-5-yl]methyl]piperazin-1-yl]-2-ethyl-3-pyridyl]-1,3-dimethyl-pyridin-2-one]: the IC50 in the series on TLR7 and TLR8 came to 21 nM.

Consider `CCc1nc(N2CCN(Cc3ccc(N4CC5(CNCCO5)C4)nc3)CC2)ccc1-c1cc(C)c(=O)n(C)c1` [Example 2, 5-[2-ethyl-6-[4-[[6-(5-oxa-2,8-diazaspiro[3.5]nonan-2-yl)-3 pyridyl]methyl]piperazin-1-yl]-3-pyridyl]-1,3-dimethyl-pyridin-2-one], for which the IC50 with TLR7 and TLR8 was 7 nM.

As to `Cc1cc(-c2ccc(N3CCN(Cc4ncc(N5CCNCC5)cn4)CC3)nc2C(C)C)cn(C)c1=O` [Example 12, 5-[2-isopropyl-6-[4-[(5-piperazin-1-ylpyrimidin-2-yl)methyl]piperazin-1-yl]-3-pyridyl]-1,3-dimethyl-pyridin-2-one], the IC50 with TLR7 and TLR8 was found to be 12 nM.

With `Cc1cc(-c2ccc(N3CCN4CCN(c5ccc(N6CCNCC6)nc5)CC4C3)nc2C(C)C)cn(C)c1=O` (stereo not drawn) [Example 16, 5-[2-isopropyl-6-[8-(6-piperazin-1-yl-3-pyridyl)-3,4,6,7,9,9a-hexahydro-1H-pyrazino[1,2-a]pyrazin-2-yl]-3-pyridyl]-1,3-dimethyl-pyridin-2-one], in the series on TLR7 and TLR8, the IC50 was determined as 2 nM.

`CCc1nc(N2CCN(Cc3cnc(N4CC5(CNCCO5)C4)nc3)CC2)ccc1-c1cc(C)c(=O)n(C)c1` [Example 1, 5-[2-ethyl-6-[4-[[2-(5-oxa-2,8-diazaspiro[3.5]nonan-2-yl)pyrimidin-5-yl]methyl]piperazin-1-yl]-3-pyridyl]-1,3-dimethyl-pyridin-2-one]: the F in series [1] (dose normalized AUC0-last after IV 2 mg/kg and PO 10 mg/kg) stood at 40%. The AUC(0-t) in series [1] (rat, IV 2 mg/kg, plasma, read-out: IV AUC0-last) came out at 873 ng·h/mL; in series [1] (rat, PO 10 mg/kg, plasma, read-out: PO AUC0-last) it was 1750 ng·h/mL. In addition, the Cmax in series [1] (rat, PO 10 mg/kg, plasma) was determined as 151 ng/mL. In series [1] (rat, plasma, IV 2 mg/kg), this molecule showed a clearance of 37 mL/min/kg. In addition, the half-life in series [1] (rat, plasma, IV 2 mg/kg, read-out: T½ (converted)) is 3.78 h. Moreover, the Vd in series [1] (rat, plasma, IV 2 mg/kg, read-out: Vss) was determined as 7.4 L/kg.

For `Cc1cc(-c2ccc(N3CCN(Cc4cnc(N5CCNCC5)nc4)CC3)nc2C(C)C)cn(C)c1=O` [Example 9, 5-[2-isopropyl-6-[4-[(2-piperazin-1-ylpyrimidin-5-yl)methyl]piperazin-1-yl]-3-pyridyl]-1,3-dimethyl-pyridin-2-one], the IC50 with TLR7 and TLR8 came out at 0.4 nM.

The values are drawn from US20230295109A1, “PYRIDINONE COMPOUNDS FOR THE TREATMENT OF AUTOIMMUNE DISEASE” (F. Hoffmann-La Roche AG, priority 2020, published 2023).
